Ends that are not written are not given here.
How the values were obtained:
BB/Wor rats = experiment: BB/Wor diabetic rat model, progression to diabetes; type: in vivo; details: 10 μg/ml in drinking water
Method: Both groups were maintained on a standard diet of rat chow (Harlan Teklab Diet #7012). All food and water were previously autoclaved. Each day, daily water intake was measured and 100 ml of fresh water was given. The treated group received 10 μg/ml of the zonulin peptide antagonist (SEQ ID NO:15) supplemented in the drinking water. The rats were housed in hepa-filter cages.
Diabetes in the rats was diagnosed as follows: The rats were weighed twice a week. Blood glucose was determined weekly using the OneTouch® glucose monitoring system (Johnson & Johnson). Each week, reagent strips for urinalysis were used to monitor glucose (Diastix®) and ketones (Ketositx®) (Bayer). Rats with a blood glucose>250 mg/dl were fasted overnight, and blood glucose levels>200 mg/dl were considered diabetic.
Following clinical presentation of diabetes, the rats were sacrificed as follows: the rats were anesthesized using ketamine anesthesia and a midline incision was made allowing access to the heart. An 18 G needle was placed into the heart and death occurred by exsanguinations. Then, zonulin assays were conducted as described above. […] According to Biomedical Research Models, Inc., 80% of diabetes prone rats present with diabetes by age 80 days.

rabbit ileum = experiment: Tissue resistance (Rt) of rabbit ileum mounted in Ussing chambers; type: cell-based
Method: Next, rabbit ileum mounted in Ussing chambers as described above, were exposed to 100 μg of FZI/0 (SEQ ID NO:15), 100 μg of FZI/1 (SEQ ID NO:29), 1.0 μg of 6×His-ZOT (obtained as described in Example 1 of U.S. patent application Ser. No. 09/127,815, filed Aug. 3, 1998), 1.0 μg of zonulini (obtained as described in Example 3 of U.S. patent application Ser. No. 09/127,815, filed Aug. 3, 1998), or 1.0 μg of zonulinh (obtained as described in Example 3of U.S. patent application Ser. No. 09/127,815, filed Aug. 3, 1998), alone; or pre-exposed for 20 min to 100 μg of FZI/0 or FZI/1, at which time 1.0 μg of 6×His-ZOT, 1.0 μg of zonulini, or 1.0 μg of zonulinh, was added. ΔRt was then calculated as described above.

rabbit ileal mucosa = details: cited from earlier work

GGVLVQPG [FZI/0, synthetic octapeptide corresponding to amino acid residues 8-15 of human fetal zonulini]
treated rats that did not develop diabetes (BB/Wor rats; endpoint age 80 days): 60% | rats that developed diabetes by age 80 days (BB/Wor rats; n=5, control rats 80%): 40% | change in Rt as compared to the negative control (rabbit ileum; 100 μg peptide alone, rabbit ileum): 0.5% | decrease of the effect of ZOT on Rt (rabbit ileum; pre-treatment for 20 min with 100 μg peptide, then 1.0 μg 6×His-ZOT): 75% | decrease of the effect of zonulinh on Rt (rabbit ileum; pre-treatment for 20 min with 100 μg peptide, then 1.0 μg zonulinh): 100% | decrease of the effect of zonulini on Rt (rabbit ileum; pre-treatment for 20 min with 100 μg peptide, then 1.0 μg zonulini): 97%

FZI/1: second synthetic peptide: Gly in position 8, Val in position 12, Gln in position 13 changed to Val, Gly, Arg (VGVLGRPG; tight junction antagonist peptide) [reference compound]
inhibitory effect on ZOT, zonulini and zonulinh action on Rt (rabbit ileum; pre-exposure for 20 min to 100 μg peptide): completely ablated

ZOT: zonula occludens toxin elaborated by V. cholerae
Na+-glucose coupled active transport (rabbit ileal mucosa): does not affect | cytotoxicity (rabbit ileal mucosa): not cytotoxic | transepithelial resistance (rabbit ileal mucosa): fails to completely abolish

— patent US8183211B2, “Pharmaceutical compositions for inhibiting intestinal permeability” (University of Maryland, Baltimore, priority 2000, dated 2012)
